Results taken from ChEMBL document CHEMBL6153138, “Discovery of Novel Aromatic Urea-Imidazole Salt Derivatives for Cancer Therapy via Targeting ERK1/2” (J Med Chem, 2025).
Activity calls are given as the source filed them. The rule behind the calls is not given here.

Key:
MCF7 [1] = assay: Induction of autophagy in human MCF7 cells assessed as upregulation of LC3B-II expression incubated for 48 hrs by Western blotting analysis; assay type: functional, cell-based; settings: dose 0.5-2 µM
MCF7 [2] = assay: Activation of ERK1/2 pathway in human MCF7 cells assessed as increase in EGF-induced p90RSK phosphorylation at 2 uM incubated for 30 mins by Western blot analysis; assay type: cell-based
[3] = Toxicity in female BALB/c mouse assessed as effect on tumor at 25 to 50 mg/kg, po qd measured after 18 days by H and E staining based analysis; assay type: organism-based; settings: in vivo, 432 h, dose 25-50 mg/kg, time 18 day
[4] = biological target: T1, Mitogen-activated protein kinase; ERK1/ERK2 (Homo sapiens) (UniProt P27361+P28482); assay: Induction of thermal stabilization of ERK1/2 in human MCF7 cells at 10 uM incubated for 3 hrs at 65 to 75 degree C by […] method; assay type: cell-based
MCF7 [5] = assay: Inhibition of colony formation in human MCF7 cells harbouring ERK2 knockout at 1 uM incubated for 48 hrs by crystal violet staining based microscopic analysis; assay type: functional, cell-based
MCF7 [6] = assay: Induction of autophagy in human MCF7 cells assessed as increase in MDC positive cells at 0.5 to 2 uM by MDC staining based microscopic analysis; assay type: functional, cell-based; settings: dose 0.5-2 µM
Mitochondrial membrane [7] = assay: Induction of mitochondrial membrane potential loss in human MCF7 cells assessed as increase in JC-1 monomers by measuring increase in green fluorescence at 0.5 uM by flow cytometry analysis (reference value: 38.0%); assay type: cell membranes
[8] = Toxicity in female BALB/c mouse assessed as effect ALB level in serum at 25 to 50 mg/kg, po qd measured after 18 days by biochemical analysis; assay type: organism-based; settings: in vivo, 432 h, dose 25-50 mg/kg, time 18 day
MCF7 [9] = assay: Induction of apoptosis in human MCF7 cells assessed as late apoptotic cells at 1 uM incubated for 48 hrs in presence of 3-methyladenine by Annexin V/FITC and PI staining based flow cytometry analysis (reference value: 6.21%); assay type: functional
HCC1937 = assay: Antiproliferative activity against human HCC1937 cells incubated for 48 hrs by CCK-8 method; assay type: functional, cell-based; settings: HCC1937, 48 h
4T1-Luc [10] = assay: Anti-metastatic activity in mouse 4T1-Luc cells assessed as reduction in disruption of cell structure at 25 to 50 mg/kg, po measured after 20 days by H and E staining based analysis; assay type: functional, organism-based; settings: dose 25-50 mg/kg, time 20.0 day
MCF7 [11] = assay: Antiproliferative activity against human MCF7 cells incubated for 48 hrs by CCK-8 method; assay type: functional, cell-based; settings: MCF7, 48 h
4T1-Luc [12] = assay: Anti-metastatic activity in mouse 4T1-Luc cells assessed as reduction in condensed nuclei at 25 to 50 mg/kg, po measured after 20 days by H and E staining based analysis; assay type: functional, organism-based; settings: dose 25-50 mg/kg, time 20.0 day
MCF7 [13] = assay: Induction of autophagy in human MCF7 cells assessed as increase in Beclin-1 level at 1 uM by Western blot analysis; assay type: functional, cell-based
MCF7 [14] = assay: Upregulation of E-cadherin expression in human MCF7 cells at 0.5 to 2 uM; assay type: functional, cell-based; settings: dose 0.5-2 µM
MCF7 [15] = assay: Induction of autophagy in human MCF7 cells assessed as increase in acidic vesicular organelles at 0.5 to 2 uM by Acridine orange staining based analysis; assay type: functional, cell-based; settings: dose 0.5-2 µM
4T1 [16] = assay: Antitumor activity against mouse 4T1 cells implanted in female BALB/c mouse model assessed as tumor growth inhibition at 50 mg/kg, po qd measured for 18 days relative to control; assay type: functional; settings: 4T1, 432 h, time 18 day, read-out: TGI
4T1 [17] = assay: Antitumor activity against mouse 4T1 cells implanted in female BALB/c mouse model assessed as tumor necrosis at 25 to 50 mg/kg, po qd measured for 18 days by H and E staining based analysis; assay type: functional, organism-based; settings: dose 25-50 mg/kg, time 18.0 day
MCF-10A = assay: Antiproliferative activity against human MCF-10A cells incubated for 48 hrs by CCK-8 method; assay type: functional, cell-based
4T1 [18] = assay: Antitumor activity against mouse 4T1 cells implanted in female BALB/c mouse model assessed as reduction in Ki67 expression at 50 mg/kg, po in presence of chloroquine by immunohistochemical analysis; assay type: functional, organism-based
[19] = Toxicity in female BALB/c mouse assessed as effect TG level in serum at 25 to 50 mg/kg, po qd measured after 18 days by biochemical analysis; assay type: organism-based; settings: in vivo, 432 h, dose 25-50 mg/kg, time 18 day
[20] = Toxicity in female BALB/c mouse assessed as effect on heart at 25 to 50 mg/kg, po qd measured after 18 days by H and E staining based analysis; assay type: organism-based; settings: in vivo, 432 h, dose 25-50 mg/kg, time 18 day
MCF7 [21] = assay: Effect on MEK1/2 expression in human MCF7 cells at 0.5 to 2 uM measured after 30 mins to 4 hrs by Western blot analysis; assay type: functional, cell-based; settings: dose 0.5-2 µM, time 30-240 min
[22] = Toxicity in female BALB/c mouse assessed as effect CHO level in serum at 25 to 50 mg/kg, po qd measured after 18 days by biochemical analysis; assay type: organism-based; settings: in vivo, 432 h, dose 25-50 mg/kg, time 18 day
MCF7 [23] = assay: Induction of apoptosis in human MCF7 cells assessed as late apoptotic cells at 1 uM incubated for 48 hrs in presence of chloroquine by Annexin V/FITC and PI staining based flow cytometry analysis (reference value: 4.90%); assay type: functional
MCF7 [24] = assay: Upregulation of ERK1/2 phosphorylation expression in human MCF7 cells measured after 30 mins to 4 hrs by Western blot analysis; assay type: functional, cell-based; settings: dose 0.5-2 µM, time 30-240 min
4T1 [25] = assay: Antitumor activity against mouse 4T1 cells implanted in female BALB/c mouse model assessed as increase in ERK1/2 phosphorylation at 50 mg/kg, po qd measured from 12 to 24 hrs by immunohistochemical analysis; assay type: functional, organism-based; settings: time 12-24 hrs
[26] = Toxicity in female BALB/c mouse assessed as effect ALP level in serum at 25 to 50 mg/kg, po qd measured after 18 days by biochemical analysis; assay type: organism-based; settings: in vivo, 432 h, dose 25-50 mg/kg, time 18 day
MCF7 [27] = assay: Effect on MEK1/2 phosphorylation expression in human MCF7 cells at 0.5 to 2 uM measured after 30 mins to 4 hrs by Western blot analysis; assay type: functional, cell-based; settings: dose 0.5-2 µM, time 30-240 min
[28] = Toxicity in female BALB/c mouse assessed as effect on liver at 25 to 50 mg/kg, po qd measured after 18 days by H and E staining based analysis; assay type: organism-based; settings: in vivo, 432 h, dose 25-50 mg/kg, time 18 day
MCF7 [29] = assay: Inhibition of proliferation in human MCF7 cells at 0.5 to 2 uM incubated for 48 hrs by EdU incorporation assay; assay type: functional, cell-based; settings: dose 0.5-2 µM
MCF7 [30] = assay: Downregulation of vimentin expression in human MCF7 cells at 0.5 to 2 uM; assay type: functional, cell-based; settings: dose 0.5-2 µM
Mitochondrial membrane [31] = assay: Induction of mitochondrial membrane potential loss in human MCF7 cells assessed as reduction in JC-1 aggregates by measuring decrease in red fluorescence at 0.5 uM by flow cytometry analysis (reference value: 24.7%); assay type: cell membranes; set-up: scale not given: the % may be the effect or the level left
[32] = biological target: T1, Mitogen-activated protein kinase; ERK1/ERK2 (Homo sapiens); assay: Binding affinity to ERK1/2 in human MCF7 cells assessed as protection of pronase-mediated protein degradation at 1 to 100 uM pre-incubated with compound for 1 hr followed by pronase digestion for 15 mins by DARTS analysis; assay type: cell-based; settings: dose 1-100 µM, time 75.0 min
[33] = AUC (0 to infinity) in Sprague-Dawley rat at 10 mg/kg, po by LC-MS/MS analysis; assay type: ADME, organism-based; settings: in vivo

T1 sequence (P27361 whole entry, looked up): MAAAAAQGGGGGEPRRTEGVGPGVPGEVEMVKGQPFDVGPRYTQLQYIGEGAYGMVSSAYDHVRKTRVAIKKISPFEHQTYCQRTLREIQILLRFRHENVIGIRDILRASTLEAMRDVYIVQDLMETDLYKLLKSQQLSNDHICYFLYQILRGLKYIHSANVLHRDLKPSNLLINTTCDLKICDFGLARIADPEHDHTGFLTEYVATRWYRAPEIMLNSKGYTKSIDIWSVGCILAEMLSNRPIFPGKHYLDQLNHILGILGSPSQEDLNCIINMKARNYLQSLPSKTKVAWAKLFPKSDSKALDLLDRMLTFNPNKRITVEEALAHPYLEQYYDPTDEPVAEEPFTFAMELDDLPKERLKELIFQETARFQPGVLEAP
T1 sequence (P28482 whole entry, looked up): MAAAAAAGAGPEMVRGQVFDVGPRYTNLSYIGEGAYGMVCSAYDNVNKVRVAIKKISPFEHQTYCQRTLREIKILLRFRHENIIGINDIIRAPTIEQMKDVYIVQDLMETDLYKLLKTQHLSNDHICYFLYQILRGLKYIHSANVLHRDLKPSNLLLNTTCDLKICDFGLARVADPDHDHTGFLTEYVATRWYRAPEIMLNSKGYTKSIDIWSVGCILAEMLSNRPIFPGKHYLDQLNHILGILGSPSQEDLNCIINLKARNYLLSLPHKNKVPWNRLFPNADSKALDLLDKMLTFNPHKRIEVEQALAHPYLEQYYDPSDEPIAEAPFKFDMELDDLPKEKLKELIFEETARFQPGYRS

## O=C(Nc1cc(C(F)(F)F)cc(C(F)(F)F)c1)N[C@@H](Cc1ccccc1)Cn1c[n+](Cc2ccc3ccccc3c2)c2ccccc21.[Br-]
MCF7 [1]
  Activity: Dose-dependent-effect
MCF7 [2]
  Activity: inactive
[3]
  Activity: Non-toxic
[4]
  Activity: Active
MCF7 [5]
  inhibition: inactive
MCF7 [6]
  Activity: Active
Mitochondrial membrane [7]
  Activity: 46.6%
[8]
  Activity: Non-toxic
MCF7 [9]
  Activity: 25.1%
HCC1937
  IC50: 1680 nM
4T1-Luc [10]
  Activity: Active
MCF7 [11]
  IC50: 670 nM
4T1-Luc [12]
  Activity: Active
MCF7 [13]
  Activity: Active
MCF7 [14]
  Activity: Active
MCF7 [15]
  Activity: Active
4T1 [16]
  inhibition in vivo at 50 mg/kg: 54.9%
4T1 [17]
  Activity: Active
MCF-10A
  IC50: > 10000 nM
4T1 [18]
  Activity: Active
[19]
  Activity: Non-toxic
[20]
  Activity: Non-toxic
MCF7 [21]
  Activity: inactive
[22]
  Activity: Non-toxic
MCF7 [23]
  Activity: 26.9%
MCF7 [24]
  Activity: Dose-dependent-effect
4T1 [25]
  Activity: inactive
[26]
  Activity: Non-toxic
MCF7 [27]
  Activity: inactive
[28]
  Activity: Non-toxic
MCF7 [29]
  inhibition: Active
MCF7 [30]
  Activity: Active
Mitochondrial membrane [31]
  Activity: 17.2%
[32]
  Activity: Active
[33]
  AUC(0-inf): 4080 ng·h/mL
